Experimental findings from US10172868B2, “Substituted quinazolines for inhibiting kinase activity” (NeuPharma, Inc., priority 2013, dated 2019) are described below.

Holding throughout (assay type): biochemical
One test has as its target FGFR1 (Homo sapiens (Human), UniProt P11362). Put plainly: Z'-LYTE kinase inhibition assay, FGFR1. Conditions: for inhibition at 0.041 µM: compound at 0.041 μM, read-out: % inhibition against FGFR1; for IC50: read-out: IC50 against FGFR1. On the procedure: (§1) Inhibitory activities of compounds against BTK, EGFR and EGFR mutants (EGFR L858R, EGFR T790M, EGFR L858R/T790M), FGFR1, FGFR2, JAK2, JAK3 and KDR were measured by Invitrogen using Z'-LYTE® Method as briefly described in the following.
(§2) Test Compounds are screened in 1% DMSO (final) in the well. For 10 point titrations, 3-fold serial dilutions are conducted from the starting concentration. All ATP Solutions are diluted to a 4× working concentration in Kinase Buffer (50 mM HEPES pH 7.5, 0.01% BRIJ-35, 10 mM MgCl2, 1 mM EGTA). Peptide/Kinase Mixtures are diluted to a 2× working concentration in the appropriate Kinase Buffers as described below.
(v) Peptide/Kinase Mixtures for Measurement of FGFR1:
The 2×FGFR1/Tyr 04 mixture is prepared in 50 mM HEPES pH 7.5, 0.01% BRIJ-35, 10 mM MgCl2, 4 mM MnCl2, 1 mM EGTA, 2 mM DTT. The final 10 μL Kinase Reaction consists of 0.41-3.5 ng FGFR1 and 2 μM Tyr 04 in 50 mM HEPES pH 7.5, 0.01% BRIJ-35, 10 mM MgCl2, 2 mM MnCl2, 1 mM EGTA, 1 mM DTT. After the 1 hour Kinase Reaction incubation, 5 μL of a 1:64 dilution of Development Reagent B is added.
(§3) Reaction starts by 30-second shaking of mixture consisting of 2.5 μL 4× test compound, […] 2× kinase reaction mixture and 2.5 μL 4×ATP Solution on Bar-coded Corning, low volume NBS, black 384-well plate (Corning Cat. #3676). Then the mixture is incubated for 60-minute at room temperature for the kinase reaction, followed by addition of 5 μL of a 1:1024 dilution of development reagent A and 30-second plate shake. The mixture is then incubated for another 60-minute at room temperature for development reaction. Finally fluorescence is read by plate reader.
To determine IC50 of a compound against EGFR, EGFR mutant and other kinases, a series of concentrations of the compound were tested for the inhibition. […] The scale utilized in Table 4 is as follows: +++ less than 100 nM, ++ 100-500 nM and + greater than 500 nM.

For the next test, the target named is JAK2 (Homo sapiens (Human), UniProt O60674). Nature of the test: Z'-LYTE kinase inhibition assay, JAK2. The following applies: compound at 0.041 μM; read-out: % inhibition against JAK2. On the procedure: as §1, §2
(v) Peptide/Kinase Mixtures for Measurement of JAK2:
The 2×JAK2/Tyr 06 mixture is prepared in 50 mM HEPES pH 7.5, 0.01% BRIJ-35, 10 mM MgCl2, 1 mM EGTA. The final 10 μL Kinase Reaction consists of 0.06-0.81 ng JAK2 and 2 μM Tyr 06 in 50 mM HEPES pH 7.5, 0.01% BRIJ-35, 10 mM MgCl2, 1 mM EGTA. After the 1 hour Kinase Reaction incubation, 5 μL of a 1:64 dilution of Development Reagent A is added.
as §3

In another test the target is EGFR (ErbB1) T790M (Homo sapiens (Human), UniProt P00533, T790M). Put plainly: Z'-LYTE kinase inhibition assay, EGFR T790M. Conditions: read-out: % inhibition against EGFR T790M (Compound at 1 μM). On the procedure:
Inhibitory activities of compounds against BTK, EGFR and EGFR mutants (EGFR L858R, EGFR T790M, EGFR L858R/T790M), FGFR1, FGFR2, JAK2, JAK3 and KDR were measured by Invitrogen using Z'-LYTE® Method as briefly described in the following. Test Compounds are screened in 1% DMSO (final) in the well. For 10 point titrations, 3-fold serial dilutions are conducted from the starting concentration. All ATP Solutions are diluted to a 4× working concentration in Kinase Buffer (50 mM HEPES pH 7.5, 0.01% BRIJ-35, 10 mM MgCl2, 1 mM EGTA). Peptide/Kinase Mixtures are diluted to a 2× working concentration in the appropriate Kinase Buffers as described below. (iii) Peptide/Kinase Mixtures for Measurement of EGFR (ErbB1) T790M: […] After the 1 hour Kinase Reaction incubation, 5 μL of a 1:64 dilution of Development Reagent B is added. Reaction starts by 30-second shaking of mixture consisting of 2.5 μL 4× test compound, […] 2× kinase reaction mixture and 2.5 μL 4×ATP Solution on Bar-coded Corning, low volume NBS, black 384-well plate (Corning Cat. #3676). Then the mixture is incubated for 60-minute at room temperature for the kinase reaction, followed by addition of 5 μL of a 1:1024 dilution of development reagent A and 30-second plate shake. The mixture is then incubated for another 60-minute at room temperature for development reaction. Finally fluorescence is read by plate reader.

One may read the inhibition as the relative decrease from the control value, in per cent. What is called IC50 is the concentration that inhibits the measured activity by half.

Chain of FGFR1 (P11362 22-822): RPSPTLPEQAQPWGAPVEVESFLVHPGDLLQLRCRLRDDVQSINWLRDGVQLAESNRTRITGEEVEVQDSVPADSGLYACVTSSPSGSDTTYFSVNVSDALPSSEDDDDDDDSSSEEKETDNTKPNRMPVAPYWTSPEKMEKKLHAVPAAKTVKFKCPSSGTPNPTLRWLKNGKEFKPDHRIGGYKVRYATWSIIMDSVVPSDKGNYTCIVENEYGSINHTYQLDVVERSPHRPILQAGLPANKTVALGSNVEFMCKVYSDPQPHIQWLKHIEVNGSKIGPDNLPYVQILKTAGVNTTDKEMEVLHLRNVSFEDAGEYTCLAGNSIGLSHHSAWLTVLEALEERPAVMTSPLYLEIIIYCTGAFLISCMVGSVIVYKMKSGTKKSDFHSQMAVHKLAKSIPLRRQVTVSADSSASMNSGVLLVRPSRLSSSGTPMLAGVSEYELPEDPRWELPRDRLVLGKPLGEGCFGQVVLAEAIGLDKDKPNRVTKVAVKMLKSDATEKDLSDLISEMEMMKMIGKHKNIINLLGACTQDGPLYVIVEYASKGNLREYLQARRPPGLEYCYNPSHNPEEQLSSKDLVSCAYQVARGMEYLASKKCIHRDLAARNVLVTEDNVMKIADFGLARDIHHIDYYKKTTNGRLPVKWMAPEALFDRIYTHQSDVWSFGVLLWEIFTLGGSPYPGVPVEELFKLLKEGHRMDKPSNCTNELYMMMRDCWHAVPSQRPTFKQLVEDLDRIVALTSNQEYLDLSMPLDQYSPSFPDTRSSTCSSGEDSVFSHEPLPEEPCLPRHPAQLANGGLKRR
Chain of EGFR (ErbB1) T790M (P00533 25-1210 T790M): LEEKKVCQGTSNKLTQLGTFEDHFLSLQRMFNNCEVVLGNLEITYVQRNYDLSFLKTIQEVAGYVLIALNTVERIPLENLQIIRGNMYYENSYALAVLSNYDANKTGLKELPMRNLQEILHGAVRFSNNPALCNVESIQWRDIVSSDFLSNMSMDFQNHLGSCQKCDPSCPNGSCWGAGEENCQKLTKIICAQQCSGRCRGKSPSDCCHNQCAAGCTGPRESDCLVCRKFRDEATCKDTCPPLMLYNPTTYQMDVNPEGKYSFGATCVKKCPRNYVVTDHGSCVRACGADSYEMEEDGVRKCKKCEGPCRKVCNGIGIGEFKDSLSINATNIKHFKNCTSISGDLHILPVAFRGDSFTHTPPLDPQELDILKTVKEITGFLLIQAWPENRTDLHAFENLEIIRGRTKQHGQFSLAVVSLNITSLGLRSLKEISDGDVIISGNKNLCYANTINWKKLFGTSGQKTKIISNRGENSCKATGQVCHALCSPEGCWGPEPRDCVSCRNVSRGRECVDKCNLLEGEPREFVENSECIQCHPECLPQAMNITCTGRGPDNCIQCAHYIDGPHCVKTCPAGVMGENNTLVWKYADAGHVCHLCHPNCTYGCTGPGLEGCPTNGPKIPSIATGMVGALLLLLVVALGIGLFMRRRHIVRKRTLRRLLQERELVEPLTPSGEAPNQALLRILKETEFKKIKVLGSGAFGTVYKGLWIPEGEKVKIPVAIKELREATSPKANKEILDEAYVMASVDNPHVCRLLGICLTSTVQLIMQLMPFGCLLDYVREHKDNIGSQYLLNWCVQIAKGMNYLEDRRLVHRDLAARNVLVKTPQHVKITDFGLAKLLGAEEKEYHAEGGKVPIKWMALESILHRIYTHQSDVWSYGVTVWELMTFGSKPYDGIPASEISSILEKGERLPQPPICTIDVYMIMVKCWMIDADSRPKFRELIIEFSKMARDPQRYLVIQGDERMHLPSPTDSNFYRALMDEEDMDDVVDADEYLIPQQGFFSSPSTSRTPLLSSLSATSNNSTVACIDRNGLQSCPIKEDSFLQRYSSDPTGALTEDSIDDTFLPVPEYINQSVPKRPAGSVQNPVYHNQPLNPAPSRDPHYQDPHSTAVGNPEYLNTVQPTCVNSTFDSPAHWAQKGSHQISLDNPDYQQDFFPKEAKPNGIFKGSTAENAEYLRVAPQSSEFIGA
Chain of JAK2 (O60674 whole entry): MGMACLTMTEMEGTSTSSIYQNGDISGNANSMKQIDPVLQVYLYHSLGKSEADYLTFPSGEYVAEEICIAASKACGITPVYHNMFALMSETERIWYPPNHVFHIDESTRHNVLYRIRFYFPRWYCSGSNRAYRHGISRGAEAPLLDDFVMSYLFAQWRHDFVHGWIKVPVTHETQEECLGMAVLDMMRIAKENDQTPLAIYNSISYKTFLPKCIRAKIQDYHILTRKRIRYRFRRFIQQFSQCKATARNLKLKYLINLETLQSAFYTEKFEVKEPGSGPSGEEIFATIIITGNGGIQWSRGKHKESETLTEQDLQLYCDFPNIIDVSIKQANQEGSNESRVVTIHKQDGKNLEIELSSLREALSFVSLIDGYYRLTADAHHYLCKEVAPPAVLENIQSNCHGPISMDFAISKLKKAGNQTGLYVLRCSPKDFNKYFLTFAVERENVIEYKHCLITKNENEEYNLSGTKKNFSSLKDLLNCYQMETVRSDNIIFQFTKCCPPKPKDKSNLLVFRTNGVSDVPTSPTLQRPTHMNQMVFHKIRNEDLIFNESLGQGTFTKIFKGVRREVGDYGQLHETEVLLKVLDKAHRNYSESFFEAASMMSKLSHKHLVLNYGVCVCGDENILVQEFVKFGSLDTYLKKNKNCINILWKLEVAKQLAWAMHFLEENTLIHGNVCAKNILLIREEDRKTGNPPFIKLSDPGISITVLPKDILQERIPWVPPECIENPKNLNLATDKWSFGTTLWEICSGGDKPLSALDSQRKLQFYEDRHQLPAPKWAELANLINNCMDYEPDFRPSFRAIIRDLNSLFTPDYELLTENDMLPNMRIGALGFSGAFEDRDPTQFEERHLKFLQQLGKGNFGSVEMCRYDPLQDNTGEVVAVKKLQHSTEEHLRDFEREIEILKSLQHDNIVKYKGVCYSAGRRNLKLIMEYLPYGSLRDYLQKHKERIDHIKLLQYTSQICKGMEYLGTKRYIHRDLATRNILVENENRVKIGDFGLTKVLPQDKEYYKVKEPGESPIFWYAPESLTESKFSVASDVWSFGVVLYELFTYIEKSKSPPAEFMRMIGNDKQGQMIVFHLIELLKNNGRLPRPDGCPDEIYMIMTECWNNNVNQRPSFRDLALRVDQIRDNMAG

Take `C=CC(=O)Nc1cccc(-c2cccc3cnc(Nc4ccc(N5CCN(CCO)CC5)cc4)nc23)c1` [Example C059, N-(3-(2-((4-(4-(2-hydroxyethyl)piperazin-1-yl)phenyl)amino)quinazolin-8-yl)phenyl)acrylamide]: at FGFR1, the inhibition at 0.041 µM was above 50% and the half-inhibitory concentration (IC50) is below 100 nM.

Take `Fc1cccc(-c2cccc3cnc(Nc4ccc(N5CCOCC5)cc4)nc23)c1` [Example C009, 8-(3-fluorophenyl)-N-(4-morpholinophenyl)quinazolin-2-amine]: the inhibition at 0.041 µM on JAK2 is above 50%. Besides, on EGFR (ErbB1) T790M, the inhibition at 1 µM was below 50%.

In the case of `C=CC(=O)Nc1cccc(-c2cccc3cnc(Nc4ccc(N5CCOCC5)cc4)nc23)c1` [Example C001, N-(3-(2-((4-morpholinophenyl)amino)quinazolin-8-yl)phenyl)acrylamide], the inhibition at 0.041 µM at JAK2 and on FGFR1 was above 50% throughout. The inhibition at 1 µM on EGFR (ErbB1) T790M was above 50%.

Turning to `C=CC(=O)Nc1cccc(-c2cccc3cnc(Nc4ccc(N5CCN(C)CC5)nc4)nc23)c1` [Example C041, N-(3-(2-((6-(4-methylpiperazin-1-yl)pyridin-3-yl)amino)quinazolin-8-yl)phenyl)acrylamide], the IC50 on FGFR1 is below 100 nM.

For `Clc1ccccc1-c1cccc2cnc(Nc3ccc(N4CCOCC4)cc3)nc12` [Example C011, 8-(2-chlorophenyl)-N-(4-morpholinophenyl)quinazolin-2-amine], at EGFR (ErbB1) T790M, the inhibition at 1 µM was below 50%.

In the case of `C=CC(=O)Nc1cccc(-c2cccc3cnc(Nc4ccc(N5CCN(C)CC5)cc4)nc23)c1` [Example C021, N-(3-(2-((4-(4-methylpiperazin-1-yl)phenyl)amino)quinazolin-8-yl)phenyl)acrylamide], the inhibition at 0.041 µM at JAK2 was above 50%. In addition, on FGFR1, the inhibition at 0.041 µM was above 50% and the IC50 is below 100 nM.

For `c1ccc(-c2cccc3cnc(Nc4ccc(N5CCOCC5)cc4)nc23)cc1` [Example C004, N-(4-morpholinophenyl)-8-phenylquinazolin-2-amine], on JAK2, the inhibition at 0.041 µM was above 50%. The inhibition at 1 µM on EGFR (ErbB1) T790M is below 50%.

Take `C=CC(=O)Nc1cccc(-c2nccc3c(N)nc(Nc4ccc(N5CCOCC5)cc4)nc23)c1` [Example C005, N-(3-(4-amino-2-((4-morpholinophenyl)amino)pyrido[3,4-d]pyrimidin-8-yl)phenyl)acrylamide]: the inhibition at 0.041 µM on JAK2 was below 50%. Also, the inhibition at 1 µM at EGFR (ErbB1) T790M was below 50%.

For the compound `C=CC(=O)Nc1cccc(-c2cccc3cnc(Nc4ccc(N5CCN(C)CC5)cc4OC)nc23)c1` [Example C003, N-(3-(2-((2-methoxy-4-(4-methylpiperazin-1-yl)phenyl)amino)quinazolin-8-yl)phenyl)acrylamide], on EGFR (ErbB1) T790M, the inhibition at 1 µM was above 50%.

Take `Fc1ccccc1-c1cccc2cnc(Nc3ccc(N4CCOCC4)cc3)nc12` [Example C010, 8-(2-fluorophenyl)-N-(4-morpholinophenyl)quinazolin-2-amine]: the inhibition at 1 µM on EGFR (ErbB1) T790M is below 50%.

As to `Clc1cccc(-c2cccc3cnc(Nc4ccc(N5CCOCC5)cc4)nc23)c1` [Example C008, 8-(3-chlorophenyl)-N-(4-morpholinophenyl)quinazolin-2-amine], the inhibition at 0.041 µM on JAK2 is above 50%; on FGFR1, below 50%. For the same compound, the inhibition at 1 µM on EGFR (ErbB1) T790M is below 50%.

`C=CC(=O)Nc1cccc(-c2nccc3cnc(Nc4ccc(N5CCOCC5)cc4)nc23)c1` [Example C012, N-(3-(2-((4-morpholinophenyl)amino)pyrido[3,4-d]pyrimidin-8-yl)phenyl)acrylamide]: on JAK2, the inhibition at 0.041 µM was below 50%. In addition, the inhibition at 1 µM on EGFR (ErbB1) T790M is above 50%.

`C=CC(=O)Nc1cccc(-c2cccc3cnc(Nc4ccc(N5CCN(CCF)CC5)cc4)nc23)c1` [Example C053, N-(3-(2-((4-(4-(2-fluoroethyl)piperazin-1-yl)phenyl)amino)quinazolin-8-yl)phenyl)acrylamide]: the inhibition at 0.041 µM on JAK2 and on FGFR1 was above 50% each time.

On to `C=CC(=O)Nc1cccc(-c2cccc3cnc(Nc4ccc(N5CCOCC5)cc4OC)nc23)c1` [Example C002, N-(3-(2-((2-methoxy-4-morpholinophenyl)amino)quinazolin-8-yl)phenyl)acrylamide], for which, on EGFR (ErbB1) T790M, the inhibition at 1 µM was above 50%.

With `Fc1ccc(Cl)cc1-c1cccc2cnc(Nc3ccc(N4CCOCC4)cc3)nc12` [Example C007, 8-(5-chloro-2-fluorophenyl)-N-(4-morpholinophenyl)quinazolin-2-amine], the inhibition at 1 µM at EGFR (ErbB1) T790M was below 50%.

Take `C=CC(=O)Nc1cccc(-c2cccc3cnc(Nc4ccc(N5CCN(C)CC5)cc4F)nc23)c1` [Example C044, N-(3-(2-((2-fluoro-4-(4-methylpiperazin-1-yl)phenyl)amino)quinazolin-8-yl)phenyl)acrylamide]: the inhibition at 0.041 µM at FGFR1 is below 50%.
